The source of these data is ChEMBL document CHEMBL1201862, “PubChem BioAssay data set” (2004).

Among the test systems are KM-20L2; SNB-78; LXFL 529; M19-MEL; XF498; DMS-273; DMS-114; DLD-1; RXF 631.
Assay in all cases: NCI-60 cell line screen, 48 h

Molecules are shown by their SMILES.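 Assay format: 96-well plates, 48-hour exposure. GI50 = concentration required for 50% inhibition of growth.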 The source made the active and inactive calls. Rule as the data show it: active = GI50 up to about 1.1 µM and inactive = higher. Some results are limits rather than exact numbers.

With `CC(=O)O[C@]12CCCCCC1C1(O)C(O)CCC[C@H]12` (stereo partly drawn), the GI50 with KM-20L2, in the assay with SNB-78, in the assay on LXFL 529, with M19-MEL, in the assay on XF498 and in the assay with DMS-273 was > 100 µM (inactive) each time. Also, the GI50 in the assay on DMS-114 was > 100 µM (inactive).
As for `CC1(c2ccccc2Cl)C(C#N)C(=O)NC(=O)C1C#N` (stereo not drawn), the GI50 was 36.1 µM (inactive) with KM-20L2; 55.6 µM (inactive) in the assay on SNB-78; 27 µM (inactive) in the assay with LXFL 529; 35.3 µM (inactive) in the assay on M19-MEL; 33.6 µM (inactive) in the assay on DMS-273; 68.7 µM (inactive) in the assay on DLD-1. Besides, the GI50 in the assay on DMS-114 was 30.9 µM (inactive).
For the molecule `O=C1CCC(c2ccccc2)C(O)(C(=O)O)C1` (stereo not drawn), the GI50 with KM-20L2, in the assay on SNB-78, in the assay with LXFL 529, in the assay with M19-MEL, in the assay on DMS-273 and in the assay on DLD-1 was > 100 µM (inactive) each time. For the same molecule, in the assay with RXF 631, the GI50 was > 100 µM (inactive).
Turning to `COC1=CC(=O)C(O)=C(CC2(C)C(C)CCC3(C)C2CCCC3(C)C)C1=O` (stereo not drawn), the GI50 in the assay on KM-20L2 was 2.42 µM (inactive); in the assay on SNB-78 it was 18.1 µM (inactive); in the assay on LXFL 529, 5.41 µM (inactive); with M19-MEL it was 2.16 µM (inactive); with XF498, 4.14 µM (inactive); in the assay with DMS-273, 3.47 µM (inactive). The GI50 is 5.53 µM (inactive) in the assay on DLD-1, 2.57 µM (inactive) in the assay on DMS-114 and 25.7 µM (inactive) in the assay with RXF 631.
For the molecule `COc1cccc(/C=C(\NC(C)=O)c2nc3cc(Cl)ccc3[nH]2)c1`, the GI50 in the assay with KM-20L2, in the assay with SNB-78, with LXFL 529, in the assay with M19-MEL, with XF498 and with DLD-1 was > 100 µM (inactive) each time. Also, in the assay with DMS-114, the GI50 is > 100 µM (inactive).
As to `CC(=O)O[C@]12CCCCC1C1(O)C(O)CCCCC12` (stereo partly drawn), the GI50 in the assay on KM-20L2, with SNB-78, in the assay on LXFL 529, with M19-MEL, in the assay on DMS-273 and in the assay on DMS-114 was > 100 µM (inactive) throughout.
On to `O=C(Nc1cccc(Cc2cccc(NC(=O)c3ccccc3)c2)c1)c1ccccc1`, for which the GI50 in the assay on KM-20L2 was > 100 µM (inactive); in the assay with LXFL 529, 28.7 µM (inactive); in the assay with M19-MEL, 63 µM (inactive); in the assay with DMS-273 it was 55 µM (inactive); in the assay on DLD-1, 91.8 µM (inactive); in the assay on DMS-114, 10.6 µM (inactive).
On to `CSc1snc2sc3c(Cl)nnnc3c12`, for which the GI50 in the assay on KM-20L2 was 14 µM (inactive); in the assay with SNB-78, 13.8 µM (inactive); in the assay on LXFL 529 it was 2.11 µM (inactive); with M19-MEL, 9.35 µM (inactive); in the assay on XF498 it was 14.4 µM (inactive); in the assay with DMS-273, 11.4 µM (inactive). The GI50 is 10 µM (inactive) with DLD-1, 13.2 µM (inactive) in the assay on DMS-114 and 16.1 µM (inactive) with RXF 631.
Turning to `CC(=O)/C(=C\c1cccc([N+](=O)[O-])c1)C(=O)Nc1ccccc1C`, the GI50 with KM-20L2, in the assay on SNB-78, in the assay with LXFL 529, in the assay on M19-MEL, with XF498 and in the assay with DLD-1 was > 100 µM (inactive) each time. Besides, the GI50 in the assay with DMS-114 is > 100 µM (inactive).
`O=C(COC(=O)c1cccc2c(=O)c3ccccc3[nH]c12)Nc1ccc(S(=O)(=O)Nc2ncccn2)cc1`: the GI50 in the assay with KM-20L2 was 65.9 µM (inactive); in the assay on SNB-78, 30.6 µM (inactive); in the assay on LXFL 529, 47.5 µM (inactive); with M19-MEL it was 48.2 µM (inactive); in the assay with XF498, 26.5 µM (inactive); with DMS-273, 27.5 µM (inactive). Moreover, the GI50 is > 100 µM (inactive) in the assay on DLD-1, 43.4 µM (inactive) in the assay on DMS-114 and 94 µM (inactive) in the assay with RXF 631.
Take `O=C(COc1ccc2c(=O)cc(-c3ccccc3)oc2c1)N1CCN(c2ccccc2)CC1`: the GI50 in the assay on KM-20L2 is 37.7 µM (inactive); in the assay with SNB-78, > 100 µM (inactive); in the assay on LXFL 529, 34.1 µM (inactive); in the assay with M19-MEL, 62.2 µM (inactive); in the assay with DMS-114, 24.5 µM (inactive).
As to `Cc1c(Cl)ccc2c1NC(=O)C2(O)CC(=O)c1cccc2ccccc12` (stereo not drawn), the GI50 in the assay on KM-20L2 is 51.8 µM (inactive); with SNB-78 it was > 100 µM (inactive); in the assay on LXFL 529, > 100 µM (inactive); in the assay on M19-MEL, 18.3 µM (inactive); in the assay on XF498 it was > 100 µM (inactive); in the assay with DMS-273, 40.1 µM (inactive). Further, the GI50 in the assay with DLD-1 was > 100 µM (inactive); with DMS-114, 18.3 µM (inactive).
Turning to `COC(=O)C1C2CC3C(OC(=O)C31)C2I` (stereo not drawn), the GI50 in the assay on KM-20L2, in the assay with SNB-78, in the assay on M19-MEL, in the assay on DMS-273 and in the assay with DMS-114 was > 100 µM (inactive) throughout.
In the case of `O=c1c2cccnc2ncn1CCCN1CCCC1`, the GI50 in the assay on SNB-78 was > 100 µM (inactive); with M19-MEL, > 100 µM (inactive); in the assay with XF498, > 100 µM (inactive); with DMS-273, > 100 µM (inactive); in the assay with DLD-1, > 100 µM (inactive); in the assay on DMS-114, 86.1 µM (inactive).
Consider `Cc1cc(C)cc(NC(=O)CCC(=O)C2CCC/C2=N\NC(=O)C(=O)NN)c1` (stereo not drawn), for which the GI50 in the assay on KM-20L2, in the assay on LXFL 529, in the assay with M19-MEL, with XF498, in the assay with DMS-273 and in the assay with DLD-1 was > 100 µM (inactive) each time. Also, the GI50 in the assay with DMS-114 and with RXF 631 was > 100 µM (inactive) in each case.
For `CNCC(=O)Nc1ccc2c(c1)C(=O)c1ccc(NC(=O)CNC)cc1C2=O`, the GI50 is 5.3 µM (inactive) with KM-20L2; 3.05 µM (inactive) with SNB-78; 2.8 µM (inactive) with LXFL 529; 3.32 µM (inactive) in the assay on XF498; 2.6 µM (inactive) in the assay on DMS-273; 9.64 µM (inactive) in the assay with DLD-1. The GI50 in the assay with DMS-114 is 2.03 µM (inactive).
As to `N#CC1=C(O)NC(O)=C(C#N)C1c1ccc(C2C(C#N)=C(O)NC(O)=C2C#N)cc1`, the GI50 is > 100 µM (inactive) in the assay on KM-20L2; > 100 µM (inactive) with SNB-78; > 100 µM (inactive) with LXFL 529; 67.8 µM (inactive) with M19-MEL; > 100 µM (inactive) with XF498; > 100 µM (inactive) in the assay with DMS-273. Besides, the GI50 is 55.7 µM (inactive) in the assay with DLD-1, > 100 µM (inactive) with DMS-114 and > 100 µM (inactive) with RXF 631.
Take `C=CC1=C(C)c2cc3[nH]c(cc4nc(cc5[nH]c(cc1n2)c(C)c5CCC(=O)N(CC)CC)C(CCC(=O)N(CC)CC)=C4C)c(C)c3C=C`: the GI50 in the assay with KM-20L2, in the assay on SNB-78, with LXFL 529, in the assay on M19-MEL and in the assay with DLD-1 was > 100 µM (inactive) in each case.
Turning to `CSc1nc(NC2OC(COC(C)=O)C(OC(C)=O)C(OC(C)=O)C2OC(C)=O)c(/N=C/C=N/c2c(NC3OC(COC(C)=O)C(OC(C)=O)C(OC(C)=O)C3OC(C)=O)nc(SC)[nH]c2=O)c(=O)[nH]1` (stereo not drawn), the GI50 with KM-20L2, in the assay on SNB-78, in the assay on LXFL 529, with M19-MEL, with DMS-273 and in the assay with DLD-1 was > 100 µM (inactive) throughout. The GI50 in the assay on DMS-114 and in the assay on RXF 631 was > 100 µM (inactive) each time.
For `O=C1CCC[C@]2(CCCC(=O)N2)C1`, the GI50 in the assay with KM-20L2 was > 100 µM (inactive); in the assay with SNB-78, > 94 µM (inactive); in the assay with LXFL 529, > 100 µM (inactive); in the assay with M19-MEL, > 100 µM (inactive); in the assay on XF498 it was > 100 µM (inactive); with DMS-273 it was > 100 µM (inactive). Further, the GI50 in the assay on DLD-1, in the assay with DMS-114 and in the assay with RXF 631 was > 100 µM (inactive) in each case.
Take `Cc1ccc(-c2cc(-c3ccco3)c(C#N)c(=O)n2C2OC(OC(=O)c3ccccc3)C(OC(=O)c3ccccc3)C2OC(=O)c2ccccc2)cc1` (stereo not drawn): the GI50 in the assay with KM-20L2 was > 100 µM (inactive); with SNB-78 it was 83.6 µM (inactive); with LXFL 529 it was > 100 µM (inactive); in the assay on M19-MEL, > 100 µM (inactive); in the assay with DMS-273, 97.1 µM (inactive); in the assay on DLD-1, > 100 µM (inactive). For the same molecule, the GI50 in the assay with DMS-114 is 38.6 µM (inactive); in the assay on RXF 631 it was > 100 µM (inactive).
As to `O=C1OCC(C(=O)c2cccc(O)c2)C1=O` (stereo not drawn), the GI50 in the assay on KM-20L2, in the assay on SNB-78, in the assay with LXFL 529, in the assay on M19-MEL, in the assay on DMS-273 and in the assay on DLD-1 was > 100 µM (inactive) throughout. Also, the GI50 in the assay on DMS-114 and in the assay on RXF 631 was > 100 µM (inactive) each time.
`C#Cc1cccc(NC(=O)/C=C\C(=O)O)c1`: the GI50 in the assay with KM-20L2, with SNB-78, with LXFL 529 and in the assay on DLD-1 was > 100 µM (inactive) each time.
As for `O=S(=O)(O)C(O)/C=C/c1ccccc1` (stereo not drawn), the GI50 is > 100 µM (inactive) in the assay with KM-20L2; > 100 µM (inactive) in the assay with LXFL 529; > 100 µM (inactive) in the assay with M19-MEL; > 100 µM (inactive) with DMS-273; > 100 µM (inactive) in the assay with DLD-1; 65.2 µM (inactive) in the assay on DMS-114.
`CC1=C(N2CC2)C(=O)c2nc3n(c2C1=O)CCC3O` (stereo not drawn): the GI50 is 0.804 µM (active) in the assay on KM-20L2; 0.0296 µM (active) with SNB-78; 0.679 µM (active) in the assay with LXFL 529; 1.54 µM (inactive) in the assay with M19-MEL; 14.9 µM (inactive) in the assay with XF498; 0.469 µM (active) with DMS-273. The GI50 in the assay with DLD-1 was 1.18 µM (inactive); in the assay with DMS-114, 1.03 µM (active).
With `COc1c(C)c2c(c(O)c1C/C=C(\C)CCC(=O)O)C(=O)OC2` [MYCOPHENOLIC ACID], the GI50 in the assay with LXFL 529 is 0.693 µM (active); in the assay on M19-MEL it was 1.28 µM (inactive); with DMS-273, 0.35 µM (active); in the assay with DLD-1, 0.57 µM (active); in the assay with DMS-114, 0.845 µM (active).
